In data set [1] the test system is Staphylococcus aureus. Kind of data set: Antibacterial activity against antibiotic resistant Staphylococcus aureus 4904/C assessed as reduction in microbial growth incubated for 24 hrs by microdilution assay. The format is functional.
In data set [2] the test system is Staphylococcus aureus. Kind of data set: Antibacterial activity against antibiotic resistant Staphylococcus aureus 4515/A assessed as reduction in microbial growth incubated for 24 hrs by microdilution assay. The format is functional. Background: Broth dilution looks for growth in wells or tubes with falling amounts of substance.
Data set [3] deals with Staphylococcus aureus. The experiment in a line: Antibacterial activity against antibiotic resistant Staphylococcus aureus 4738/B assessed as reduction in microbial growth incubated for 24 hrs by microdilution assay. The format is functional.
Data set [4] deals with Staphylococcus aureus. The experiment in a line: Antibacterial activity against antibiotic resistant Staphylococcus aureus 4883/C assessed as reduction in microbial growth incubated for 24 hrs by microdilution assay. The format is functional.
The subject of data set [5] is Staphylococcus aureus. The experiment in a line: Antibacterial activity against antibiotic resistant Staphylococcus aureus 4566/A assessed as reduction in microbial growth incubated for 24 hrs by microdilution assay. The data set is classed as functional.
Data set [6] has as its system Staphylococcus aureus. Kind of data set: Antibacterial activity against wild type methicillin resistant Staphylococcus aureus 4968/C assessed as reduction in microbial growth incubated for 24 hrs by microdilution assay. The data set is classed as functional.
In data set [7] the test system is Staphylococcus aureus. Kind of data set: Antibacterial activity against antibiotic resistant Staphylococcus aureus 4463/A assessed as reduction in microbial growth incubated for 24 hrs by microdilution assay. The format is functional.
Data set [8] relates to Staphylococcus aureus. Kind of data set: Antibacterial activity against antibiotic resistant Staphylococcus aureus 78/CF assessed as reduction in microbial growth incubated for 24 hrs by microdilution assay. The data set is classed as functional.
Data set [9] has as its system Staphylococcus aureus. Kind of data set: Antibacterial activity against antibiotic resistant Staphylococcus aureus 4482/A assessed as reduction in microbial growth incubated for 24 hrs by microdilution assay. The data set is classed as functional.
Data set [10] has as its system Staphylococcus aureus. The experiment in a line: Antibacterial activity against antibiotic resistant Staphylococcus aureus 4679/B assessed as reduction in microbial growth incubated for 24 hrs by microdilution assay. The data set is classed as functional.
The test system of data set [11] is Staphylococcus aureus. The experiment in a line: Antibacterial activity against antibiotic resistant Staphylococcus aureus 4504/A assessed as reduction in microbial growth incubated for 24 hrs by microdilution assay. The format is functional.
Data set [12] concerns Staphylococcus aureus. Kind of data set: Antibacterial activity against antibiotic resistant Staphylococcus aureus 4788/B assessed as reduction in microbial growth incubated for 24 hrs by microdilution assay. The data set is classed as functional.
Data set [13] concerns Staphylococcus aureus. The experiment in a line: Antibacterial activity against antibiotic resistant Staphylococcus aureus 4880/C assessed as reduction in microbial growth incubated for 24 hrs by microdilution assay. The format is functional.
For data set [14], the system named is Staphylococcus aureus. The experiment in a line: Antibacterial activity against wild type methicillin resistant Staphylococcus aureus 4561/A assessed as reduction in microbial growth incubated for 24 hrs by microdilution assay. The data set is classed as functional.
Data set [15] relates to Staphylococcus aureus. The experiment in a line: Antibacterial activity against antibiotic resistant Staphylococcus aureus 4740/B assessed as reduction in microbial growth incubated for 24 hrs by microdilution assay. The format is functional.
Data set [16] has as its system Staphylococcus aureus. Kind of data set: Antibacterial activity against wild type methicillin resistant Staphylococcus aureus 5017/C assessed as reduction in microbial growth incubated for 24 hrs by microdilution assay. The data set is classed as functional.
Data set [17] has as its system Staphylococcus aureus. Kind of data set: Antibacterial activity against antibiotic resistant Staphylococcus aureus 4862/C assessed as reduction in microbial growth incubated for 24 hrs by microdilution assay. The data set is classed as functional.
For data set [18], the system named is Staphylococcus aureus. The experiment in a line: Antibacterial activity against antibiotic resistant Staphylococcus aureus 4717/B assessed as reduction in microbial growth incubated for 24 hrs by microdilution assay. The format is functional.
Data set [19] concerns Staphylococcus aureus. Kind of data set: Antibacterial activity against antibiotic resistant Staphylococcus aureus 5079/C assessed as reduction in microbial growth incubated for 24 hrs by microdilution assay. The data set is classed as functional.
In data set [20] the test system is Staphylococcus aureus. The experiment in a line: Antibacterial activity against antibiotic resistant Staphylococcus aureus 4557/A assessed as reduction in microbial growth incubated for 24 hrs by microdilution assay. The format is functional.
In data set [21] the test system is Staphylococcus aureus. The experiment in a line: Antibacterial activity against antibiotic resistant Staphylococcus aureus 4502/A assessed as reduction in microbial growth incubated for 24 hrs by microdilution assay. The data set is classed as functional.
Data set [22] has as its system Staphylococcus aureus. The experiment in a line: Antibacterial activity against antibiotic resistant Staphylococcus aureus 4461/A assessed as reduction in microbial growth incubated for 24 hrs by microdilution assay. The format is functional.
For data set [23], the system named is Staphylococcus aureus. The experiment in a line: Antibacterial activity against antibiotic resistant Staphylococcus aureus 77/CF assessed as reduction in microbial growth incubated for 24 hrs by microdilution assay. The data set is classed as functional.
Data set [24] concerns Staphylococcus aureus. Kind of data set: Antibacterial activity against antibiotic resistant Staphylococcus aureus 4460/A assessed as reduction in microbial growth incubated for 24 hrs by microdilution assay. The format is functional.
In data set [25] the test system is Pseudomonas aeruginosa. Kind of data set: Antibacterial activity against Pseudomonas aeruginosa assessed as reduction in microbial growth measured after 20 cycles by microdilution assay. To be noted: Pseudomonas aeruginosa; time 24 hrs. The data set is classed as functional.
The subject of data set [26] is Staphylococcus aureus. Kind of data set: Antibacterial activity against Staphylococcus aureus ATCC 29213 = CCM 4223 assessed as inhibition of bacterial growth incubated for 24 hrs by microdilution assay. The data set is classed as functional.
The nature of data set [27]: Hemolytic activity in human RBC assessed as haemoglobin release measured after 3 hr. The format is toxicity, cell-based, Erythrocyte. Conditions: red blood cells (erythrocytes).
Another data set concerns Enterococcus faecalis. Kind of data set: Antibacterial activity against Enterococcus faecalis ATCC 29212 = CCM 4224 assessed as inhibition of bacterial growth incubated for 24 hrs by microdilution assay. The format is functional.
Data set [28] in a line: Gradient chromatographic hydrophobicity index of the compound at pH 3.7 by HPLC analysis. The format is ADME.
The test system of data set [29] is Staphylococcus aureus. The experiment in a line: Antibacterial activity against Staphylococcus aureus ATCC 29213 = CCM 4223 assessed as inhibition of bacterial growth incubated for 24 hrs in presence of BSA by microdilution assay. The format is functional.
The subject of data set [30] is Pseudomonas aeruginosa. Kind of data set: Antibacterial activity against multidrug-resistant Pseudomonas aeruginosa assessed as reduction in microbial growth incubated for 24 hrs by microdilution assay. The format is functional.
Data set [31] deals with Staphylococcus epidermidis. Kind of data set: Antibacterial activity against Staphylococcus epidermidis CCM 7221 assessed as inhibition of bacterial growth incubated for 24 hrs by microdilution assay. The data set is classed as functional.
The test system of data set [32] is Escherichia coli. Kind of data set: Antibacterial activity against Escherichia coli ATCC 25922 = CCM 3954 assessed as inhibition of bacterial growth incubated for 24 hrs by microdilution assay. The data set is classed as functional.
Data set [33] has as its system Pseudomonas aeruginosa. Kind of data set: Antibacterial activity against Pseudomonas aeruginosa ATCC 27853 = CCM 3955 assessed as inhibition of bacterial growth incubated for 24 hrs by microdilution assay. The data set is classed as functional.
Data set [34] relates to Cell membrane. The experiment in a line: Induction of plasma membrane depolarization in Escherichia coli CCM 3954 assessed as increase in fluorescence intensity at 2.5 mg/L measured after 80 seconds by DiSC3-5 dye based spectrofluorometer method. Conditions: time 80.0 sec. The data set is classed as cell membranes.
Data set [35] concerns Escherichia coli. Kind of data set: Antibacterial activity against multidrug-resistant Escherichia coli CE5556 expressing CTX-M-15 assessed as reduction in microbial growth incubated for 24 hrs by microdilution assay. The format is functional.
Data set [36] concerns Cell membrane. Kind of data set: Induction of membrane permeabilization in Escherichia coli CCM 3954 assessed as propidium iodide influx measured after 80 mins by spectrofluorometer method. To be noted: dose 2.5-5 mg/L, DDE = dose-dependent effect.
Data set [37] relates to Lipid bilayer. The experiment in a line: Induction of membrane disruption of bacterial inner membrane mimic DOPE/DOPG (2:1) large unilamellar vesicles assessed as carboxyfluorescein leakage at 2.5 mg/L measured after 90 mins by spectrofluorometer analysis.
Data set [38] relates to Lipid bilayer. The experiment in a line: Induction of membrane disruption of […] membrane mimic DOPC/DOPE (2:1) large unilamellar vesicles assessed as carboxyfluorescein leakage at 2.5 mg/L measured after 90 mins by spectrofluorometer analysis.
A further data set relates to Enterococcus faecium. Kind of data set: Antibacterial activity against vancomycin resistant Enterococcus faecium 419/ANA assessed as reduction in microbial growth incubated for 24 hrs by microdilution assay. The data set is classed as functional.
In data set [39] the test system is Escherichia coli. Kind of data set: Antibacterial activity against Escherichia coli ATCC 25922 = CCM 3954 assessed as inhibition of bacterial growth incubated for 24 hrs in presence of BSA by microdilution assay. The format is functional.
Data set [40] deals with Staphylococcus aureus. The experiment in a line: Antibacterial activity against methicillin resistant Staphylococcus aureus 4591/A assessed as reduction in microbial growth incubated for 24 hrs by microdilution assay. The data set is classed as functional.

Activity calls are given as the source filed them. No cut-off for these calls is given here.

Usually MIC stands for the lowest concentration found to suppress growth. On to `CC1(C)S[C@@H]2[C@H](NC(=O)Cc3ccccc3)C(=O)N2[C@H]1C(=O)O` [PENICILLIN G], for which the MIC was 0.25 mg/L in the data set with Staphylococcus aureus [1]; 0.5 mg/L in the data set on Staphylococcus aureus [2]; 1 mg/L in the data set with Staphylococcus aureus [3]; 0.25 mg/L with Staphylococcus aureus [4]; 0.25 mg/L in the data set on Staphylococcus aureus [5]; greater than 4 mg/L in the data set with Staphylococcus aureus [6]. The MIC is 0.25 mg/L in the data set on Staphylococcus aureus [7]; 0.25 mg/L in the data set with Staphylococcus aureus [8]; 2 mg/L with Staphylococcus aureus [9]; 0.5 mg/L with Staphylococcus aureus [10]; 0.25 mg/L with Staphylococcus aureus [11]; 0.25 mg/L with Staphylococcus aureus [12]. In addition, the MIC was 0.25 mg/L in the data set on Staphylococcus aureus [13]; greater than 2 mg/L in the data set with Staphylococcus aureus [14]; 0.25 mg/L in the data set with Staphylococcus aureus [15]; greater than 4 mg/L in the data set on Staphylococcus aureus [16]; 1 mg/L with Staphylococcus aureus [17]; 0.5 mg/L in the data set with Staphylococcus aureus [18]. Besides, the minimal inhibitory concentration (MIC) in the data set on Staphylococcus aureus [19] amounted to 0.25 mg/L; in the data set with Staphylococcus aureus [20] it was 0.25 mg/L; in the data set with Staphylococcus aureus [21], 0.25 mg/L; in the data set with Staphylococcus aureus [22] it was 1 mg/L; in the data set with Staphylococcus aureus [23], 0.5 mg/L; in the data set with Staphylococcus aureus [24] it was 1 mg/L.
In the case of `CC(C)(O/N=C(\C(=O)N[C@@H]1C(=O)N2C(C(=O)[O-])=C(C[n+]3ccccc3)CS[C@H]12)c1csc(N)n1)C(=O)O` [CEFTAZIDIME], the MIC in the data set with Pseudomonas aeruginosa [25] came to 128 mg/L.
As a reminder, the HC50 is the concentration giving 50% haemolysis. For `CCCCCCCCOP(=O)(CCN(CCCN)CCCN)OCCCCCCCCCCOP(=O)(CCN(CCCN)CCCN)OCCCCCCCC.Cl.Cl.Cl.Cl.Cl.Cl` (configuration not stated), the minimum inhibitory concentration (MIC) with Staphylococcus aureus [26] turned out to be 0.5 mg/L; with Enterococcus faecalis, 0.5 mg/L; in the data set on Staphylococcus aureus [29] it was 0.125 mg/L; in the data set on Pseudomonas aeruginosa [30] it was 1 mg/L; in data set [31] it was 0.5 mg/L; with Escherichia coli [32] it was 0.5 mg/L. The minimal inhibitory concentration (MIC) was 1 mg/L in the data set with Pseudomonas aeruginosa [33]; 1 mg/L in the data set with Escherichia coli [35]; 1 mg/L in the data set with Enterococcus faecium; 0.5 mg/L in the data set on Escherichia coli [39]; 3 mg/L in the data set with Staphylococcus aureus [40]. Moreover, the 50% haemolytic concentration (HC50) at 3 h in data set [27] was 6.4 µg/mL. In addition, the CHI in [28] is on record as 40.6. The outcome with Cell membrane [34], in the data set on Lipid bilayer [37] and with Lipid bilayer [38] was Active. Further, the Activity result in the data set on Cell membrane [36] is “Dde”.
